How the values were obtained:
Test in all cases: fraction bound to plasma proteins and brain, late-stage follow-up, ADME assay for V1a-R antagonist project, biochemical, LC-MS, human, mouse, rat plasma, rat brain (AID 743030)
Conditions in all cases: equilibrium dialysis, plasma/brain binding, 16 h, at 2.5 µM
Rat plasma proteins = tested on: Rat plasma proteins
Mouse plasma proteins = tested on: Mouse plasma proteins
Human plasma proteins = tested on: Human plasma proteins
Rat brain tissue = tested on: Rat brain tissue

- fraction bound (Rat plasma proteins): 99.5%
- fraction bound (Mouse plasma proteins): 97.7%
- fraction bound (Human plasma proteins): 99.4%
- fraction bound (Rat brain tissue): > 99.5%
SMILES: O=C(C1CCN(c2ccc(Cl)cn2)CC1)N(CC1CC1)c1ccc(Cl)cc1
